PMC7558015, “Enhanced Intestinal Absorption and Pharmacokinetic Modulation of Berberine and Its Metabolites through the Inhibition of P-Glycoprotein and Intestinal Metabolism in Rats Using a Berberine Mixed Micelle Formulation” (Pharmaceutics, 2020)
Where two headings read alike, the source gives them in different places.

Legend:
[1] = cited from earlier work
[2] = Pharmacokinetic study after oral administration in rats; assay type: in vivo
Procedure: All the animal procedures were approved by the animal care and use committee of Kyungpook National University (Daegu, Korea; Approval No. KNU-2014-0097 and KNU-2019-0004). Male Sprague–Dawley rats weighing 250–270 g (8 weeks old) were purchased from Samtako Bio Korea (Osan, Kyunggido, Korea). When the rats arrived, they were housed with a 12 h light/dark cycle. Food and water were supplied ad libitum for 1 week prior to the animal experiment. […] The femoral vein, femoral arteries, and bile ducts of the rats were cannulated with polyethylene tubes (PE50 or PE10, Jungdo, Seoul, Korea) under anesthesia with isoflurane […] on the warming surgery table (YTK corp. Seoul, Korea), and the rats were remained on the warming table to maintain body temperature during the pharmacokinetic study. […] The prepared berberine suspension or berberine formulation was administered to rats via oral gavage. Blood samples (approximately 150 µL) were taken via the femoral artery at 0, 0.25, 0.5, 1, 1.5, 2, 4, 8, and 12 h after the oral administration, and pre-warmed saline (approximately 150 µL) was injected into the femoral vein to compensate the blood loss. The blood samples were centrifuged at 10,000× g for 1 min at 4 °C. Bile and urine samples were collected every 4 h for 12 h. After 12 h, the bile and urine samples were pooled and weighed. Aliquots (50 µL each) of plasma, urine, and bile samples were stored at −80 °C for the analysis of berberine and its metabolites. Plasma, urine, and bile samples (50 µL) were added to 150 µL of methanol containing propranolol (10 ng/mL), vortex-mixed for 15 min, and centrifuged at 10,000× g for 5 min at 4 °C. An aliquot (10 µL) of the supernatant was injected into the LC–MS/MS system. Agilent 6430 Triple Quad LC/MS system (Agilent, Wilmington, DE, USA) coupled with an Agilent 1260 series HPLC system was used for the analysis of berberine and its metabolites using the modified method of Kwon et al.. The separation was performed on a Synergy polar RP column (2.0 mm × 150 mm, 4 μm; Phenomenex, Torrance, CA, USA) using a gradient elution of the mobile phase that consisted of methanol and water with 0.1% formic acid at a flow rate of 0.2 mL/min. The composition of the mobile phase was as follows: 55% methanol for 0–2.5 min, 70% methanol for 3–5 min, 55% methanol for 5.3–12 min. The retention time was 3.01 min and 3.53 min for thalifendine-glucuronide and berberrubine-glucuronide, 6.30 min for thalifendine-sulfate, 7.79 min for berberine, 5.47 min for thalifendine, 6.38 min for berberrubine, and 2.53 min for propranolol. Mass spectra were recorded by electrospray ionization with a positive mode. Quantification was carried out using MRM at m/z 498.1 → 322.1 for thalifendine-glucuronide and berberrubine-glucuronide, m/z 402.0 → 322.1 for thalifendine-sulfate, m/z 336.1 → 320.0 for berberine, m/z 322.1 → 307.1 for thalifendine and berberrubine, and m/z 260.0 → 116.0 for propranolol. […] The thalifendine-glucuronide, berberrubine-glucuronide, and thalifendine-sulfate were relatively quantitated using berberine’s standard curve, since the authentic standard compounds were not available. The pharmacokinetic parameters were calculated by non-compartmental analysis using the WinNonlin Version 5.1 software (Pharsight, Certara, NJ, USA). Statistical analysis was performed using SPSS for Windows (version 24.0; IBM Corp., Armonk, NY, USA).

[3] = Caco-2 permeability / transport of berberine and berberine formulation; assay type: in vitro ADME; conditions: human
Procedure: (§1) The cells were grown for 21 days and the culture medium was changed every 2 days. The integrity of the cell monolayers was evaluated prior to the transport experiments by measuring the transepithelial electrical resistance (TEER). […] To characterize the absorption transport of berberine in Caco-2 cells, the apical to basal (A to B) and basal to apical (B to A) transport of berberine was measured. […] The insert was then transferred to a well containing fresh HBSS medium every 15 min for 1 h. […] The transport medium on the apical side was replaced with 0.4 mL of fresh incubation medium every 15 min for 1 h. […] The insert was then transferred to a well containing fresh HBSS medium every 15 min for 1 h. […] The transport medium on the apical side was replaced with 0.4 mL of fresh incubation medium every 15 min for 1 h. […] The TEER values were monitored before and after the transport experiments with berberine formulation using an epithelial TEER meter (World Precision Instruments, Sarasota, FL, USA). A 100 μL aliquot of each sample was added to a 100 μL aliquot of ice-cold methanol containing 10 ng/mL of propranolol (IS). After vortexing and centrifuging the samples at 16,000× g for 10 min, the supernatant was injected directly into the LC-MS/MS system.

Caco-2 cells [4] = experiment: as above; assay type: in vitro ADME
Procedure: as §1

Caco-2 cells [5] = experiment: cells
Procedure: Caco-2 cells were seeded onto 96-well plates (BD-Corning, Corning, NY, USA) at a density of 1 × 10^5 cells/well, and cultured for 24 h at 37 °C in a 5% CO2 incubator. […] As a control group, berberine was treated at concentrations of 0, 1, 5, 10, 50, 100, 500, and 1000 μM. After 24 h of treatment, 20 μL of CellTiter 96 aqueous one solution from a cell proliferation assay kit (Promega, Madison, WI, USA) was added to the culture medium and incubated for 1 h. The absorbance rate of the reaction mixture was measured at 492 nm using an Infiniti M200Pro microplate reader (Tecan, Zurich, Switzerland).

[6] = test system: β-Glucuronidase and sulfatase; experiment: Glucuronidase and sulfatase treatment (bile samples, stability of standards); assay type: in vitro ADME, Helix pomatia
Procedure: The reaction was terminated by adding 150 µL of ice-cold methanol containing propranolol (10 ng/mL), vortex-mixed for 5 min, and centrifuged at 10,000× g for 5 min at 4 °C. An aliquot (10 µL) of the supernatant was injected into the LC–MS/MS system.

[7] = rats; cited from earlier work
[8] = test system: human colon cancer HCT-8 cells; design: method as in PMID 23682426; conditions: cited from earlier work
[9] = design: method as in PMID 15531889; conditions: 32 hypercholesterolemic patients; cited from earlier work
[10] = after Berberine Formulation PO 50 mg/kg, rats
[11] = after Berberine PO 50 mg/kg, rats
[12] = berberine formulation group compared with berberine group, PO 50 mg/kg, rats
[13] = male, Sprague–Dawley, rat, plasma, po, 50 mg/kg, plasma, after Berberine Formulation PO 50 mg/kg, rats
[14] = male, Sprague–Dawley, rat, plasma, po, 50 mg/kg, plasma, after Berberine Formulation PO 50 mg/kg, rats, read-out: Tmax (converted)
[15] = male, Sprague–Dawley, rat, plasma, po, 50 mg/kg, plasma, after Berberine PO 50 mg/kg, rats
[16] = male, Sprague–Dawley, rat, plasma, po, 50 mg/kg, plasma, after Berberine PO 50 mg/kg, rats, read-out: Tmax (converted)
[17] = 8 h of incubation, 37 °C, pH 5.0

For `COc1ccc2cc3[n+](cc2c1OC)CCc1cc2c(cc1-3)OCO2` [Berberine], the AUCliver ([1]; liver) is listed as 728.6 ng·h/mL, the “share of oral dose entering the portal vein” value ([1]; oral) is listed as 0.5% and the “share of oral dose metabolized in the enterocytes” value ([1]; oral) is listed as “About 43.5%”. The “share of oral dose not absorbed (P-gp-mediated efflux and self-aggregation)” value ([1]; oral) was “About 56%”, the AUCplasma ([1]; plasma) was 86.4 ng·h/mL and the “Xb,12h (amount excreted into bile for 12 h)” value (“Xb,12h” below) [2, 10] was 992 ± 563 ng. The “Xu,12h (amount excreted into urine for 12 h)” value (from here on “Xu,12h”) [2, 10] was 21,273 ± 12,517 ng, the “Xb,12h” value [2, 11] was 323.7 ± 155.8 ng and the “Xu,12h” value [2, 11] was 47.3 ± 30.1 ng. For the same compound, the “fold increase in AUC” value [2, 12] was 15.6 fold, the AUC [2, 13] was 537 ng·h/mL and the Cmax [2, 13] was 140 ± 29.4 ng/mL. The Tmax [2, 14] was 0.583 h, the AUC [2, 15] was 34.5 ng·h/mL and the Cmax [2, 15] was 67 ± 66.9 ng/mL. The Tmax [2, 16] was 0.5 h, the efflux ratio at 1 h, 1 μM ([3]; Caco-2, pH 7.4, 1 μM of berberine (alone or in formulation)) was 14.1 and the efflux ratio at 1 h, 100 μM ([3]; Caco-2, pH 7.4, 100 μM of berberine (alone or in formulation)) was 7.5. The efflux ratio at 1 h, 10 μM ([3]; Caco-2, pH 7.4, berberine 10 μM, absence of CsA) was 13.8, the efflux ratio at 1 h, 10 μM ([3]; Caco-2, pH 7.4, with cyclosporine A 25 μM, berberine 10 μM, presence of CsA 25 μM) was 2.2 and the efflux ratio (Caco-2 cells [4]; 100 μM of berberine (alone or in formulation)) was 7.54. For the same compound, the “CLint (P-gp-mediated efflux clearance)” value (Caco-2 cells [4]; Caco-2) was 1.61 µL/min, the “Kd (absorptive diffusion clearance)” value (Caco-2 cells [4]; Caco-2) was 0.03 µL/min and the “Vmax of B to A transport” value (Caco-2 cells [4]; Caco-2, 1–100 μM, Michaelis–Menten) was 10.5 pmol/min. For the same compound, the Km (Caco-2 cells [4]; Caco-2, 1–100 μM, Michaelis–Menten, read-out: Km of B to A transport) was 6.5 µM, the IC50 (Caco-2 cells [5]; Homo sapiens, Caco-2, 24 h, read-out: IC50 (cell viability)) was 933 µM and the “berberine concentration without (significant) cytotoxicity” value (Caco-2 cells [5]; human, 24 h) was “up to 100 μM”. For the same compound, the “stability after glucuronidase and sulfatase treatment” value [6, 17] was “stable”, the “AUC post intraduodenal administration as share of AUC post intraportal vein administration” value [7] was about 0.5% and the “AUC post intraportal vein administration as share of intravenous AUC” value [7] was 72%. For the same compound, the bioavailability [7] was 0.68%, the “oral dose disappeared during gastrointestinal first-pass elimination” value [7] was 99.5% and the IC50 [8] was 470 µM. For the same compound, the “decrease of low-density lipoprotein (LDL) cholesterol” value [9] was 25%, the decrease of triglycerides [9] was 35% and the “lowering of total cholesterol” value [9] was 29%.
In the case of `COc1ccc2cc3[n+](cc2c1O)CCc1cc2c(cc1-3)OCO2` [Berberrubine], the “Metabolic ratio (metabolite AUC to berberine AUC)” value (from here on “Metabolic ratio”) [2, 10] is reported as 0.00%, the “Xb,12h” value [2, 10] is reported as 0 ng and the “Xu,12h” value [2, 10] is reported as 67.78 ± 11.89 ng. The “Metabolic ratio” value [2, 11] was 0.04%, the “Xb,12h” value [2, 11] was 0 ng and the “Xu,12h” value [2, 11] was 22.80 ± 15.84 ng. It also gave an AUC [2, 13] of 1.73 ng·h/mL, a Cmax [2, 13] of 0.31 ± 0.18 ng/mL and a Tmax [2, 14] of 0.917 h. It also gave an AUC [2, 15] of 1.34 ng·h/mL, a Cmax [2, 15] of 0.16 ± 0.03 ng/mL and a Tmax [2, 16] of 4.17 h. For the same compound, the “degraded by glucuronidase and sulfatase treatment” value [6, 17] was “more than 94%”.
With `COc1c(O)ccc2cc3[n+](cc12)CCc1cc2c(cc1-3)OCO2` [Thalifendine] the “Xb,12h” value [2, 10] was 1871 ± 1092 ng, the “Xu,12h” value [2, 10] was 7209 ± 2632 ng and the “Metabolic ratio” value [2, 11] was 0.09%. For the same compound, the “Xb,12h” value [2, 11] was 281.5 ± 250.2 ng, the “Xu,12h” value [2, 11] was 199.3 ± 76.1 ng and the “fold increase in AUC” value [2, 12] was 9.3 fold. For the same compound, the AUC [2, 13] was 28.1 ng·h/mL, the Cmax [2, 13] was 5.45 ± 3.12 ng/mL and the Tmax [2, 14] was 10.7 h. The AUC [2, 15] was 3.04 ng·h/mL, the Cmax [2, 15] was 0.64 ± 0.19 ng/mL and the Tmax [2, 16] was 7 h. For the same compound, the “stability after glucuronidase and sulfatase treatment” value [6, 17] was “stable” and the “increase of peak after glucuronidase and sulfatase treatment” value ([6]; rat bile collected 12 h after oral berberine) was 10.6 fold.
For thalifendine/berberrubine-sulfate, the Tmax ([2]; rat, in vivo, po, 50 mg/kg) was 10.67 ± 2.31 h and the “fold increase in AUC” value ([2]; rat, in vivo, po, 50 mg/kg) was 5.8 fold.
